Data reported in patent publication US11213560B2, “Method of promoting wound healing with sinetirucallol” (NATIONAL DONG HWA UNIVERSITY, priority 2015, dated 2022).

How the values were obtained:
RAW 264.7 cells = test: MTT cell viability of RAW264.7 cells (Example 2); assay type: cell-based, murine; settings: extract 5, 20, 50, 100 μg/mL or sinetirucallol 0.1, 1, 5, 10 μM for 24 h
Protocol: (§1) The RAW264.7 murine macrophage cell line was purchased from the Bioresource Collection and Research Center (BCRC, Taiwan). The cells were incubated at 37° C. in 5% CO2 in Dulbecco's modified Eagle's medium (DMEM; Gibco Inc., NY, USA) supplemented with 100 U/mL penicillin, 100 μg/mL sodium pyruvate and 10% fetal bovine serum (FBS; Gibco Inc.).
In order to examine the bio-compatibility of the extract of the present disclosed composition, a MTT assay (3-(4,5-dimethylthiazol-2-yl)-2,5-diphenyltetrazolium bromide (MTT, Invitrogen), a colorimetric based assay) was performed.
Briefly, 8×10^3 of cells per well were seeded in 96-well plates and were incubated in 5% CO2 at 37° C. for overnight. Cells were treated different concentrations (5, 20, 50, and 100 μg/mL) of Spiranthes sinensis extract for 24 h, after incubation 20 μL (5 mg/mL) of MTT solution was added per well and further incubated for 4 h. The media was removed, and formazan was solubilized by adding 100 μl/well of DMSO (Sigma-Aldrich) and OD was measured at 570 nm using a microplate reader (ELISA reader, Thermo Labsystems). Percentage of viable cells was estimated by comparing with untreated control cells. The average absorbance value of the control cells was taken as 100% viability.

[1] = test system: CFA-induced inflammation mice; test: CFA-induced paw inflammation in mice, swelling index; assay type: in vivo, C57BL/6 mice
[2] = test system: LPS-induced RAW 264.7 cells; test: Real-time PCR of inflammatory cytokine transcription in LPS-induced RAW 264.7 cells; assay type: cell-based, murine; settings: LPS 1 μg/mL; 5 μM SI (tested 0.1, 1, 5, 10 μM)
Protocol: as §1
The cells were also treated with 0.01% DMSO as a vehicle control. The cells were seeded into 12-well plates at a density of 6×10^5 cells/well in 24 h then incubated with 0.1% BSA with serum-free medium 3 h, treated with different concentrations of Spiranthes sinensis extract or SI then incubated in the presence of LPS (1 μg/mL) for 4 h.
Total RNA was prepared from freshly harvested RAW 264.7 cells and was isolated using Trizol extraction. RNA samples were frozen at −80° C. until analyzed. cDNA was then made using an M-MLV RT kit (Invitrogen, Carlsbad, Calif.) according to the manufacturer's protocol. The expression of selected cytokine and related genes in mouse tissue and in RAW264.7 cells exposed to the present Spiranthes sinensis extract was determined by the SensiFAST SYBR No-ROX Kit (BIOLINE, London, UK), as described previously. PCR cycling conditions for TNF-Alpha included a 95° C. heating step for 2 min at the beginning of every run. […] In order to quantify expression represented by each of the PCR products, an internal reference by β-actin.

COX-2 = test: Western blot of COX-2 in LPS-induced RAW264.7 cells; assay type: cell-based, murine; settings: LPS 1 μg/mL, 12 h; extract 5-100 μg/mL or SI 0.1-10 μM; dose-dependent manner
Protocol: as §1
(§2) The cells were also treated with 0.01% DMSO as a vehicle control. The cells were seeded into 12-well plates at a density of 6×10^5 cells/well in 24 h then incubated with 0.1% BSA with serum-free medium 3 h, treated with […]
(§3) The concentrations of proteins from whole-cell lysates were determined by Bradford assay. Equal amounts of protein were separated by SDS-PAGE and transferred onto nitrocellulose membranes. […] With the use of horseradish peroxidase-conjugated secondary anti-rabbit or anti-mouse antibody, bound antibodies were detected by enhanced chemiluminescence. The signals were monitored using Western Lightning™ Plus-ECL (Perkin Elmer Life Sciences) and the PVDF membrane was exposed to Luminescent image analyzer LAS-3000 (Fujifilm, Minato, Tokyo, Japan). Acquired data were analyzed and compared the difference among treatments.

NFκB = test: Western blot of NFκB in LPS-induced RAW264.7 cells; assay type: cell-based, murine; settings: LPS 1 μg/mL, 12 h; extract 5-100 μg/mL or SI 0.1-10 μM; dose-dependent manner
Protocol: as §1, §2, §3

p-ERK = test: Western blot of phosphorylated ERK in LPS-induced RAW264.7 cells; assay type: cell-based, murine; settings: LPS 1 μg/mL, 12 h; extract 5-100 μg/mL or SI 0.1-10 μM; dose-dependent manner
Protocol: as §1, §2, §3

[3] = test system: LPS-induced RAW264.7 cells; test: Nitrite quantification of NO production in LPS-induced RAW264.7 cells; assay type: cell-based, murine; settings: LPS 1 μg/mL 12 h; extract 5, 20, 50, 100 μg/mL or SI 0.1, 1, 5, 10 μM; dose-dependent manner
Protocol: as §1, §2
NO production from activated RAW 264.7 cells was determined by measuring the amount of nitrite, a stable oxidation product of NO. An aliquot of the conditioned medium was mixed with an equal volume of 1% sulfanilamide in water and 0.1% N-1-naphthylethylenediamine dihydrochloride in 5% phosphoric acid. The absorbance was determined at 550 nm. Sodium nitrite, diluted in culture media at concentrations of 10-100 μM, was used to generate a standard curve.

## C[C@H](CC[C@@H]1CC1(C)C)[C@H]1CC[C@@]2(C)C3CCC4C(C)(C)[C@H](O)CC[C@@]4(C)C3=CC[C@]12C (stereo partly drawn) [sinetirucallol]
RAW 264.7 cells
  Cell viability (MTT assay): not affected
[1]; 0.44 μg/kg SI compared with 4.4 μg/kg SI
  anti-inflammatory effect, low versus high dose: better effect than that of 4.4 μg/kg SI
[1]; SI group (4.4, 2.2, 0.44 μg/kg i.p.)
  foot swelling recovery compared with 0.3 mg/kg triamcinolone: less foot swelling recovery than that of 0.3 mg/kg triamcinolone
[1]; intraperitoneal injection 3 times Day 0 to Day 2, extract 0.5, 0.3, 0.06 mg/kg b.w, SI 4.4, 2.2, 0.44 μg/kg, compared with CFA group
  anti-inflammatory effect (swelling index of foot): much better than that of Spiranthes sinensis extract
[2]
  inhibition of inflammatory cytokine transcription: better inhibition
COX-2
  LPS-induced expression of COX-2: diminished
NFκB
  LPS-induced expression of NFκB: diminished
p-ERK
  LPS-induced phosphorylation of ERK: diminished
[3]
  NO production (nitrite): inhibitory effect
